Starred links: 1 amine or outer side, 2 acyl side, 3 side chain; linkers in the order of their positions; H or OH if unused. Positions of bridges follow the written chain, without caps; N, C: chain ends. Residues, ends and D or L forms follow the SMILES beside them. Chains are numbered I, II in the order given. X1 = c1cc(C[*:1])ccc1COCc1ccc(C[*:2])cc1
What was measured:
[1] = target: T1, full-length His6-Max (MAX^1-160) (Homo sapiens, UniProt P61244); assay: Fluorescence polarization direct binding to His6-MAX; conditions: FP direct binding; 15 nM FITC-labeled peptide; His6-MAX from 10 μM; 1X PBS, 1 mM DTT, 5% glycerol, 0.1% pluronic acid, pH 6.7; 25 °C
T1 construct: N.B. (MAX^1-160)
Description: (§1) Fluorescence Polarization Binding Assay
(§2) The relative affinities of FITC-CHDMax-1 to His6-Myc353-436 and full-length His6-Max were
(§3) determined using fluorescence polarization-based direct binding assay. The polarization
(§4) experiments were performed using a DTX 880 Multimode Detector (Beckman) at 25 °C with
(§5) excitation and emission wavelengths of 485 and 525 nm, respectively. Each polarization
(§6) experiment was performed in a 96-well round bottom plate (Greiner) in assay buffer: 1X PBS, 1
(§7) mM DTT, 5% glycerol, 0.1% pluronic acid, pH 6.7. The binding affinity (KD) values reported for
(§8) each peptide are from experiments performed in triplicate. Raw values were fit to a sigmoidal
(§9) dose-response nonlinear regression model in GraphPad Prism 6.0.
(§10) All binding experiments with FITC-labeled peptides to His6-Myc353-436 or His6-Max were performed
(§11) under the same conditions. Briefly, serial dilutions of His6-Myc353-436 and His6-Max were made
(§12) from 10 μM into 15 nM of FITC-labeled peptide in assay buffer. KD was determined using the
(§13) KD1 = (RT*(1-FSB) + LST*FSB2)/FSB-LST
(§14) RT = Total concentration of His6-Myc353-436 or His6-Max
(§15) LST = Total concentration of FITC-labeled peptide
(§16) FSB = Fraction of bound FITC-labeled peptide

MYC/MAX complex = target: T2, MYC/MAX complex (Homo sapiens, UniProt P01106); assay: Fluorescence polarization direct binding to the MYC/MAX complex; conditions: FP direct binding of fluorescein-labeled peptide to preformed MYC/MAX heterodimer; read-out: CHD^Max-1 Binding Affinity, Kd (MYC/MAX)
T2 construct: we used recombinant MYC protein (MYC^353–437); His6 (N)
Description: (§17) pET151-D-TOPO-cMyc vector was kindly provided by Dr. Edward Prochownik from the
(§18) Department of Pediatrics at UPMC Children’s Hospital of Pittsburgh. Expression and purification
(§19) of Myc353-437 were performed using an established protocol with minor modifications.7 BL21(DE3)
(§20) cells were used to express recombinant Myc353-437 protein. Bacteria were grown at 37 °C to OD600
(§21) of 0.8 followed by 1 mM IPTG induction and 16-18h growth at RT. Cells were harvested via
(§22) centrifugation at 4,000 rpm at 4 °C and the pellet was resuspended in 10 mL of lysis buffer (8 M
(§23) urea, 100 mM NaH2PO4, 10 mM Tris HCl, pH 8) supplemented with protease inhibitor cocktail
(§24) (PierceTM Protease Inhibitor Tablets) and benzonase nuclease. Suspensions were sonicated on
(§25) ice using a Branson Cell Disruptor 200 and centrifuged at 12,000 rpm for 45 min at 4 °C. Clarified
(§26) lysate was applied to a column containing pre-equilibrated HisPur Ni-NTA Superflow Agarose
(§27) (ThermoFisher Scientific) for overnight at 4 °C. The resin beads were washed with 10 mL of
(§28) additional lysis buffer followed by three washes of 10 mL wash buffer (8 M urea, 100 mM
NaH2PO4, 10 mM Tris HCl, 10 mM imidazole). The target protein was eluted with elution buffer (8 […]
Fluorescence Polarization Binding Assay […]
determined using fluorescence polarization-based direct binding assay. […]
from 10 μM into 15 nM of FITC-labeled peptide in assay buffer. KD was determined using the […]

[2] = target: T3, recombinant human MYC^353–437 protein (His6-MYC^353–437) (Homo sapiens, UniProt P01106); assay: Fluorescence polarization direct binding of fluorescein-labeled CHDs to His6-MYC353-437; conditions: FP direct binding; 15 nM FITC-labeled peptide; His6-MYC serial dilutions from 10 μM; 1X PBS, 1 mM DTT, 5% glycerol, 0.1% pluronic acid, pH 6.7; 25 °C; triplicate; MYC aggregates above 5 μM; read-out: Binding Affinity MYC^353-436, Kd
T3 construct: recombinant human MYC^353–437 protein; made in house; host or cells: E. coli BL21(DE3), pET151-D-TOPO-cMyc vector
Description: as §17, §18, §19, §20, §21, §22, §23, §24, §25, §26, §27, §28
NaH2PO4, 10 mM Tris HCl, 10 mM imidazole). The target protein was eluted with elution buffer (8
M urea, 100 mM NaH2PO4, 10 mM Tris HCl, 250 mM imidazole) and buffer exchanged into 150
mM NaCl, 50 mM Tris HCl, 5% glycerol, pH 6.7. Protein was concentrated by ultra-filtration (3000
MWCO; Amicon Ultra-15 Centrifugal Filter units from EMD Millipore) followed by TEV cleavage
(1:100 w/w of protease to target protein) in 150 mM NaCl, 50 mM Tris HCl, 5% glycerol, pH 6.7
for 24 hrs at 4 °C. The cleaved protein is further purified by reverse-phase HPLC (gradient 10-60
acetonitrile/water with 0.1% TFA over 35 min) to remove TEV protease and un-cleaved protein.
Purified Myc353-437 was lyophilized and stored at -20 °C. Myc353-437 identity was characterized by
as §1, §2, §3, §4, §5, §6, §7, §8, §9, §10, §11, §12, §13, §14, §15, §16

T1 sequence (P61244 whole entry): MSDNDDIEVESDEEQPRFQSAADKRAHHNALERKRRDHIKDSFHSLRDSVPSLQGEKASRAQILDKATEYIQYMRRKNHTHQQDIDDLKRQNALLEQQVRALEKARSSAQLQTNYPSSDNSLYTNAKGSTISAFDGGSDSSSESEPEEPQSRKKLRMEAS
T2 sequence (P01106 368-452): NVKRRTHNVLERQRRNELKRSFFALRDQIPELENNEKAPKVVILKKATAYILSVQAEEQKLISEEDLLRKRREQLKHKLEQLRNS
T2 sequence (P61244 whole entry partner): as the sequence (P61244 whole entry) above
T3 sequence (P01106 368-452): as the sequence (P01106 368-452) above

CHD^Max-1 Binding Affinity, Kd (MAX^1-160) [1]: N.B.
Kd (MYC/MAX complex): 460 ± 150 nM
Kd [2]: 350 ± 17 nM
Structure (SMILES): CC[C@H](C)[C@H](NC(=O)[C@H](CCCCN)NC(=O)[C@H](CCC(=O)O)NC(=O)[C@H](CCCNC(=N)N)NC(=O)[C@H](CC(C)C)NC(C)=O)C(=O)N[C@@H](C)C(=O)N[C@H](C(=O)N[C@@H](CC(C)C)C(=O)N[C@@H](CCC(N)=O)C(=O)N[C@@H](Cc1c[nH]c2ccccc12)C(=O)N[C@@H](CSCc1ccc(COCc2ccc(CSC[C@H](NC(=O)[C@H](CC(C)C)NC(=O)[C@H](CCC(=O)O)NC(=O)[C@H](CCC(=O)O)NC(=O)[C@@H](NC(=O)[C@H](CCC(=O)O)NC(=O)[C@H](Cc3c[nH]c4ccccc34)NC(=O)[C@H](CCC(N)=O)NC(=O)[C@H](Cc3c[nH]cn3)NC(=O)[C@@H](NC(=O)[C@H](CCC(=O)O)NC(=O)[C@H](CC(N)=O)NC(=O)[C@H](CCCCN)NC(=O)[C@H](CCCNC(=N)N)NC(=O)[C@H](CCCNC(=N)N)NC(=O)[C@H](CC(C)C)NC(C)=O)[C@@H](C)O)[C@@H](C)CC)C(N)=O)cc2)cc1)C(=O)N[C@H](C(=O)N[C@@H](CCC(=O)O)C(=O)N[C@@H](CCC(=O)O)C(=O)N[C@@H](CC(C)C)C(=O)N[C@@H](CCCNC(=N)N)C(=O)N[C@@H](CCCCN)C(N)=O)[C@@H](C)CC)[C@@H](C)O [CHD^Max-1] (I: Ac-LREKIATLQWCIEELRK-NH2 / II: Ac-LRRKNETHQWEIEELC-NH2; linker I:11-II:16 via X1)
